From PubChem BioAssay (NCI)
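Method: 48-hour compound exposure of cells in 96-well plates, five concentrations, linear interpolation of endpoints. GI50 = concentration required for 50% inhibition of growth. At the TGI there is no net growth.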 Where a SMILES comes first, the peptide text is derived from it.

Columns and labels:
Experiment in all cases: NCI-60 cell line screen, 48 h
COLO 205 colon = system: COLO 205 colon
HCC-2998 colon = system: HCC-2998 colon
HCT-116 colon = system: HCT-116 colon
NCI-H23 lung = system: NCI-H23 lung
SF-268 CNS = system: SF-268 CNS
TK-10 renal = system: TK-10 renal
DU-145 prostate = system: DU-145 prostate
MDA-MB-231 breast = system: MDA-MB-231 breast
MDA-MB-435 = system: MDA-MB-435
HS 578T breast = system: HS 578T breast

| Structure (SMILES) | TGI (COLO 205 colon) | TGI (HCC-2998 colon) [µM] | TGI (HCT-116 colon) | TGI (NCI-H23 lung) | TGI (SF-268 CNS) | TGI (TK-10 renal) | GI50 (DU-145 prostate) | TGI (DU-145 prostate) | GI50 (HCT-116 colon) | GI50 (MDA-MB-231 breast) | TGI (MDA-MB-231 breast) | GI50 (MDA-MB-435) [µM] | TGI (MDA-MB-435) [µM] | GI50 (NCI-H23 lung) | GI50 (TK-10 renal) | GI50 (COLO 205 colon) | GI50 (HCC-2998 colon) [µM] | GI50 (SF-268 CNS) | TGI (HS 578T breast) | GI50 (HS 578T breast) |
| --- | --- | --- | --- | --- | --- | --- | --- | --- | --- | --- | --- | --- | --- | --- | --- | --- | --- | --- | --- | --- |
| O=[N+]([O-])c1cc(Cl)ccc1OCc1ccccc1 | > 100 µM | > 100 | > 100 µM | 96.5 µM | > 100 µM | > 100 µM |  |  |  |  |  |  |  |  |  |  |  |  |  |  |
| CCC(C)C1NC(=O)C2CCCN2C(=O)CNC(=O)C(C)NC(=O)C(Cc2ccccc2)NC(=O)C(C(C)C)NC1=O (stereo not drawn) (cyclo(GPIVFA); configuration not given here) | > 100 µM | > 100 | > 100 µM | > 100 µM | > 100 µM | > 100 µM |  |  |  |  |  |  |  |  |  |  |  |  |  |  |
| O=[N+]([O-])c1ccccc1C=NC12CC3CC(CC(C3)C1)C2 | > 100 µM | > 100 | > 100 µM | > 100 µM | > 100 µM | > 100 µM |  |  |  |  |  |  |  |  |  |  |  |  |  |  |
| CC12CO[C@@](C)(CC(S(=O)(=O)c3ccccc3)C1)O2 (stereo partly drawn) | > 100 µM | > 100 | > 100 µM | > 100 µM | > 100 µM |  |  |  |  |  |  |  |  |  |  |  |  |  |  |  |
| CCCCc1n(Cc2ccc3ccccc3c2)cc[n+]1Cc1ccc2ccccc2c1 |  |  | 2.08 µM | 2.31 µM |  | 2.76 µM | 1.41 µM | 2.83 µM | 0.663 µM | 1.31 µM | 2.77 µM | 1.02 | 2.26 | 0.793 µM | 1.37 µM |  |  |  |  |  |
| COc1cc2c(cc1OC)NC(=O)NC(Cc1ccc3c(c1)OCO3)CC2 (stereo not drawn) | > 100 µM | > 100 |  | > 100 µM | > 100 µM | > 100 µM |  |  |  |  |  |  |  |  |  |  |  |  |  |  |
| COC(=O)C1C=NNC1C(=O)OC (stereo not drawn) | > 100 µM | > 100 | > 100 µM | > 100 µM | > 100 µM | > 100 µM |  |  |  |  |  |  |  |  |  |  |  |  |  |  |
| COc1ccc2c(Cl)cc(NC(=O)Nc3c(C)cccc3C)nc2c1 | > 100 µM | > 100 | > 100 µM | > 100 µM | > 100 µM | 58.2 µM | 28.4 µM | > 100 µM | 5.72 µM | 13.3 µM | > 100 µM | 13.4 | 40.5 | 76.9 µM | 11.2 µM | 46 µM | > 100 | 39.7 µM |  |  |
| CN[C@@H](C)[C@H](N)c1ccccc1 | > 100 µM | > 100 | > 100 µM | > 100 µM |  | > 100 µM |  |  |  |  |  |  |  |  |  |  |  |  |  |  |
| C=CC/C(=C\COP(=O)(OCc1ccc([N+](=O)[O-])o1)N(C)CCCCCl)CC/C=C(\C)CCC=C(C)C (stereo not drawn) | 43.2 µM |  | 18 µM |  | 29 µM | > 100 µM | 11.6 µM | 23.8 µM | 3.76 µM | 12.7 µM | 34.1 µM | 16.8 | 44.1 |  | 83.8 µM | 20.4 µM |  | 12 µM |  |  |
| CCOC(=N)CC(=O)Nc1cccc(Cl)c1 | > 100 µM | > 100 | > 100 µM | > 100 µM | > 100 µM | > 100 µM |  |  |  |  |  |  |  |  |  |  |  |  |  |  |
| CC(=O)[CH-]C(=O)c1ccccc1.CC(=O)[CH-]C(=O)c1ccccc1.Cl.[O-]c1ccccn1.[O-]c1ccccn1.[Ti+4] |  | > 100 | > 100 µM |  | > 100 µM |  |  |  | > 100 µM |  |  |  |  |  |  |  | > 100 | > 100 µM |  |  |
| COc1ccc2c(c1)[n+]([O-])c(-c1ccc(C)cc1)c(N)[n+]2[O-] | 36.4 µM |  | > 100 µM | 48.3 µM |  |  |  |  |  |  |  |  |  |  |  |  |  |  |  |  |
| COc1c(-c2ccc(O)c(O)c2)oc2c(O)c(O)cc(O)c2c1=O | > 100 µM | > 100 | > 100 µM | > 100 µM |  | > 100 µM |  | > 100 µM |  |  | > 100 µM |  | > 100 |  |  |  |  |  | > 100 µM |  |
| C=C(CC(=O)O)C(=O)O (tested in a mixture with another compound) | > 50 µg/mL |  | > 50 µg/mL | > 50 µg/mL | > 50 µg/mL | > 50 µg/mL | > 50 µg/mL | > 50 µg/mL | > 50 µg/mL | > 50 µg/mL | > 50 µg/mL |  |  | > 50 µg/mL | > 50 µg/mL | > 50 µg/mL |  | > 50 µg/mL | > 50 µg/mL | > 50 µg/mL |
| O=C(CC1(O)C(=O)Nc2ccccc21)c1ccc(O)cc1 (stereo not drawn) | > 100 µM | > 100 | > 100 µM | > 100 µM | > 100 µM | > 100 µM |  |  |  |  |  |  |  |  |  |  |  |  |  |  |
| CC1(C)C(=O)/C=C\C(=O)C(C)(C)C(=O)/C=C\C(=O)C(C)(C)C(=O)/C=C\C(=O)C(C)(C)C(=O)/C=C\C1=O | 33.2 µM |  | 30.8 µM | 51.6 µM | > 69.3 µM | > 68.6 µM |  | > 100 µM |  |  | > 100 µM |  | > 100 |  |  |  |  |  | > 100 µM |  |
| Cc1ccc(C(SCC(N)C(=O)O)(c2ccccc2)c2ccccc2)cc1 (stereo not drawn) | 0.95 µM | 15.2 | 13 µM | > 96 µM | 31.9 µM | > 100 µM | 0.181 µM | 0.466 µM | 0.0384 µM | 0.0381 µM | 0.571 µM |  |  | 0.236 µM | 1.22 µM | 0.098 µM | 0.246 | 0.0612 µM | 0.913 µM | 0.0371 µM |
| C=C1C2CC(OC(C)=O)C3(C)C(c4ccoc4)OC(=O)[C@@H](O)[C@]13OC1C[C@H](OC(C)=O)C(C)(C)[C@H](CC(=O)OC)[C@]12C (stereo partly drawn) | > 100 µM | > 100 | > 100 µM | > 100 µM |  | > 100 µM |  |  |  |  |  |  |  |  |  |  |  |  |  |  |
| COc1cccc2c1C(=O)c1c(O)c3c(c(O)c1C2=O)C[C@@](O)(C(=O)CO)CC3OC1CC(O)C(O)C(C)O1 (stereo partly drawn) |  | 2.08 | 0.572 µM | 0.501 µM | 1.81 µM | 11.6 µM |  | 0.176 µM |  |  | 6 µM |  | 2.05 |  |  |  |  |  |  |  |
| O=S1(=O)CCCS(=O)(=O)C(c2ccccc2)=C1c1ccccc1 |  | 32.4 | > 100 µM | > 100 µM | > 100 µM | > 100 µM |  |  |  |  |  |  |  |  |  |  |  |  |  |  |
| COC1C(OC(=O)/C=C/C=C/C=C/C=C\C(=O)O)CCC2(CO2)C1C1(C)OC1CC=C(C)C (stereo not drawn) | > 200 µM |  | > 200 µM | > 200 µM | > 200 µM | > 200 µM | > 200 µM | > 200 µM | > 200 µM | > 200 µM | > 200 µM | > 200 | > 200 | > 200 µM | > 200 µM | > 200 µM |  | > 200 µM | > 200 µM | > 200 µM |
| Clc1ccc2nc(-c3ccccc3)nc(Cl)c2c1 | > 100 µM | > 100 | > 100 µM | > 100 µM | > 100 µM | 63.9 µM |  |  |  |  |  |  |  |  |  |  |  |  |  |  |
